Laboratory results as given in patent publication US20210393645A1, “TREATMENT FOR PROGRESSIVE MULTIPLE SCLEROSIS” (UTI LIMITED PARTNERSHIP, priority 2016, published 2021).
Where a name gives a salt, the structure may show the parent alone.

Legend:
human neurons = experiment: Iron (FeSO4) mediated neurotoxicity screening, MAP-2 positive neurons counted; type: cell-based
Outline: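 Fetal human neurons (15-20 wk), plated with cytosine arabinoside, were pre-incubated 1 h with compounds (10 mM DMSO stocks) before FeSO4 at 25-50 μM final. Cells fixed a day later; MAP-2 immunostaining plus Hoechst nuclei imaged automatically, sites per well averaged; quadruplicates.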

C57BL/6 mice = experiment: Histological analyses of the spinal cord of EAE mice (HE/LFB, Iba1, Bielschowsky); type: in vivo, mouse; conditions: 25 mg/kg IP from day 0
Excerpt: Spinal cords and cerebella were removed. […] Cervical and lumbar cords were snap frozen.

[1] = tested on: Ifng, Tnfa, Il-17 and Ccl2 transcripts; experiment: RT-PCR of inflammatory transcripts in lumbar spinal cord of EAE mice; type: in vivo, mouse; conditions: 25 mg/kg IP from day 0, sacrifice day 15
Protocol: Lumbar spinal cords were harvested, snap frozen in liquid nitrogen and stored in -80° C. Samples were homogenized in 1 ml Trizol followed by the addition of 200 μI chloroform. […] RNA was extracted using the RNeasy Mini Kit according to the manufacturer's instruction (Qiagen). RNA concentrations were measured using a Nanodrop (Thermo Fisher Scientific). cDNA preparation was performed using the RT2 First Strand kit (Qiagen) with 1μg of RNA according to the manufacturer's instructions. Real time PCR was performed using the QuantStudio 6 Flex (Applied Biosystems by Life Technologies) with FAST SYBR Green and primers for Gapdh (Qiagen) as housekeeping gene, lfn-γ (Qiagen, QT01038821), Tnfa (Qiagen, QT00104006), II-17 (SABiosciences, PPM03023A-200) and CcI2 (Qiagen, QT00167832). Relative expression was calculated using the ΔΔCT method with Gapdh as housekeeping gene. Data were normalized to gene expression in naïve mice.

[2] = Hydroxyl radical antioxidant capacity (HORAC) assay; type: biochemical; conditions: vs 12.5 μM gallic acid (=1), 60 min
Protocol: In this assay, hydroxyl radicals generated by a Co(II)-mediated Fenton-like reaction oxidize fluorescein causing loss of fluorescence (Ou et al., J Argricultural Food Chemistry 50:2772-2777, 2002). The presence of an anti-oxidant reduces the loss of fluorescence and this can be monitored every 5 min over a period of 60 min with a Spectra Max Gemini XS plate reader (Molecular Devices, Sunnyvale, Calif., USA) and the software SoftMax Pro version 5. For monitoring fluorescence, we used an excitation wavelength of λ=485 nm and an emission wavelength of λ=520 nm.
The biochemical cell free hydroxyl radical antioxidant capacity (HORAC) assay investigates the prevention of hydroxyl radical mediated oxidation of to fluorescein in comparison to the strong anti-oxidant gallic acid. The generation of hydroxyl radicals by a cobalt-driven Fenton-like reaction oxidizes fluorescein with progressive loss of fluorescence. The presence of an anti-oxidant reduces the loss of fluorescence over time.
We compared the area under the curve of test compounds to that elicited by gallic acid to obtain the gallic acid equivalent (GAE).

microglia = conditions: shown previously; cited from earlier work
T-cells = experiment: Proliferation of T-lymphocytes (3H-thymidine) in anti-CD3/anti-CD28 activated splenocytes; type: cell-based, mouse; conditions: Mus musculus, T-cell, 72 h; drug 10 μM, vs activated splenocytes; read-out: mean reduction of 3H-thymidine incorporation (T-cell proliferation)
Protocol: A previously published protocol was used for isolating and activating T-cells (Keough et al., Nature Comm 7:11312, 2016). Spleens from female C57B16 mice were harvested and after mechanical dissociation the cell suspension was passed through a 70 μm cell strainer and separated by Ficoll gradient (1800 RPM, 30 min). Splenocytes were plated (2.5×10^5 cells in 100 μl/well) in anti-CD3 antibody coated 96-well plates (1,000 ng m1^−1 plate-bound anti-CD3 and 1,000 ng m1^−1 anti-CD28 suspended in media) to activate T-cells. Directly before plating, wells were treated with respective drugs in a final concentration of 10 μM. Cells were cultured in RPMI 1640 medium, supplemented with 10% FBS, 1 μM sodium pyruvate, 2 mM L-alanyl-L-glutamine, 1% penicillin/streptomycin, 1% HEPES and 0.05 mM 2-mercaptoethanol (all supplements were from Invitrogen). After 48 h, ^3H-thymidine was added in a concentration of 1 μCi per well, and cells were harvested after 24 h on filter mats. Mats were then evaluated for radioactivity (counts per minute) using a liquid scintillation counter.

## CN(C)CCCN1c2ccccc2CCc2ccc(Cl)cc21 [CLOMIPRAMINE HYDROCHLORIDE]
Human neurons; Homo sapiens, Neuron, drug 10 μM 1 h before FeSO4 25 or 50 μM, MAP-2 neurons after 24 h, read-out: Drug % control (mean): number of neurons normalized to untreated control
  viability at 10 µM: 107%
Human neurons; concentration response
  concentration from which neuroprotection against iron toxicity is significant: 100 nM
Human neurons; drug 10 μM 1 h before FeSO4 25 or 50 μM, MAP-2 neurons after 24 h, HYDROCHLORIDE
  Drug % control (mean): number of neurons normalized to untreated control: 107.30%
Human neurons; drug 10 μM, human neurons
  protection from FeSO4-mediated neurotoxicity (in words): strong protection
C57BL/6 mice
  axonal damage (Bielschowsky stain): significantly less axonal damage
  histological score of the spinal cord (inflammation): 1.7
  microglial activation (Iba1 staining): prevented microglial activation
[1]
  elevation of transcripts encoding Ifng, Tnfa, Il-17 and Ccl2 in spinal cord: abrogated
[2]
  mean HORAC-GAE (gallic acid equivalents): 2.1
microglia
  microglia inhibitory activity: did not have microglia inhibitory activity
T-cells
  inhibition at 10 µM: 68.2%
